Experimental data published in PubChem BioAssay (NCI).
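Cells were grown in 96-well plates and exposed to each compound for 48 hours at five concentrations; endpoints were interpolated linearly between bracketing concentrations, or set to the highest concentration if not reached. TGI marks complete inhibition of growth.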

What was measured:
Assay in all cases: NCI-60 cell line screen, 48 h
786-0 renal = tested on: 786-0 renal
A498 renal = tested on: A498 renal
A549 NSCLC = tested on: A549 NSCLC
ACHN renal = tested on: ACHN renal
BT-549 breast = tested on: BT-549 breast
CAKI-1 renal = tested on: CAKI-1 renal
CCRF-CEM leukemia = tested on: CCRF-CEM leukemia
COLO 205 colon = tested on: COLO 205 colon
DU-145 prostate = tested on: DU-145 prostate
EKVX NSCLC = tested on: EKVX NSCLC
HCC-2998 colon = tested on: HCC-2998 colon
HCT-116 colon = tested on: HCT-116 colon
HCT-15 colon = tested on: HCT-15 colon
HL-60(TB) leukemia = tested on: HL-60(TB) leukemia
HOP-92 NSCLC = tested on: HOP-92 NSCLC
HS 578T breast = tested on: HS 578T breast
HT29 colon = tested on: HT29 colon
IGROV1 ovarian = tested on: IGROV1 ovarian
K-562 leukemia = tested on: K-562 leukemia
KM12 colon = tested on: KM12 colon
LOX IMVI melanoma = tested on: LOX IMVI melanoma
M14 melanoma = tested on: M14 melanoma
MALME-3M melanoma = tested on: MALME-3M melanoma
MCF7 breast = tested on: MCF7 breast
MDA-MB-231 breast = tested on: MDA-MB-231 breast
MDA-MB-435 = tested on: MDA-MB-435
MDA-N = tested on: MDA-N
NCI-H226 lung = tested on: NCI-H226 lung
NCI-H23 lung = tested on: NCI-H23 lung
NCI-H460 lung = tested on: NCI-H460 lung
NCI-H522 lung = tested on: NCI-H522 lung
NCI/ADR-RES ovarian = tested on: NCI/ADR-RES ovarian
OVCAR-3 ovarian = tested on: OVCAR-3 ovarian
OVCAR-4 ovarian = tested on: OVCAR-4 ovarian
OVCAR-5 ovarian = tested on: OVCAR-5 ovarian
OVCAR-8 ovarian = tested on: OVCAR-8 ovarian
PC-3 prostate = tested on: PC-3 prostate
RXF 393 renal = tested on: RXF 393 renal
SF-268 CNS = tested on: SF-268 CNS
SF-295 CNS = tested on: SF-295 CNS
SF-539 CNS = tested on: SF-539 CNS
SK-MEL-2 melanoma = tested on: SK-MEL-2 melanoma
SK-MEL-28 melanoma = tested on: SK-MEL-28 melanoma
SK-MEL-5 melanoma = tested on: SK-MEL-5 melanoma
SK-OV-3 ovarian = tested on: SK-OV-3 ovarian
SN12C renal = tested on: SN12C renal
SNB-19 CNS = tested on: SNB-19 CNS
SNB-75 CNS = tested on: SNB-75 CNS
SR leukemia = tested on: SR leukemia
SW-620 colon = tested on: SW-620 colon
T-47D breast = tested on: T-47D breast
TK-10 renal = tested on: TK-10 renal
U251 CNS = tested on: U251 CNS
UACC-257 melanoma = tested on: UACC-257 melanoma
UACC-62 melanoma = tested on: UACC-62 melanoma
UO-31 renal = tested on: UO-31 renal
HOP-62 NSCLC = tested on: HOP-62 NSCLC
MOLT-4 leukemia = tested on: MOLT-4 leukemia
RPMI-8226 leukemia = tested on: RPMI-8226 leukemia

Q: What does the source list for `N#CCCC(C=O)(CCC#N)CCC#N`?
A: TGI (786-0 renal): > 100 µM; TGI (A498 renal): > 100 µM; TGI (A549 NSCLC): > 100 µM; TGI (ACHN renal): > 100 µM; TGI (BT-549 breast): > 100 µM; TGI (CAKI-1 renal): > 100 µM; TGI (CCRF-CEM leukemia): > 100 µM; TGI (COLO 205 colon): > 100 µM; TGI (DU-145 prostate): > 100 µM; TGI (EKVX NSCLC): > 100 µM; TGI (HCC-2998 colon): > 100 µM; TGI (HCT-116 colon): > 100 µM; TGI (HCT-15 colon): > 100 µM; TGI (HL-60(TB) leukemia): > 100 µM; TGI (HOP-92 NSCLC): > 100 µM; TGI (HS 578T breast): > 100 µM; TGI (HT29 colon): > 100 µM; TGI (IGROV1 ovarian): > 100 µM; TGI (K-562 leukemia): > 100 µM; TGI (KM12 colon): > 100 µM; TGI (LOX IMVI melanoma): > 100 µM; TGI (M14 melanoma): > 100 µM; TGI (MALME-3M melanoma): > 100 µM; TGI (MCF7 breast): > 100 µM; TGI (MDA-MB-231 breast): > 100 µM; TGI (MDA-MB-435): > 100 µM; TGI (MDA-N): > 100 µM; TGI (NCI-H226 lung): > 100 µM; TGI (NCI-H23 lung): > 100 µM; TGI (NCI-H460 lung): > 100 µM; TGI (NCI-H522 lung): > 100 µM; TGI (NCI/ADR-RES ovarian): > 100 µM; TGI (OVCAR-3 ovarian): > 100 µM; TGI (OVCAR-4 ovarian): > 100 µM; TGI (OVCAR-5 ovarian): > 100 µM; TGI (OVCAR-8 ovarian): > 100 µM; TGI (PC-3 prostate): > 100 µM; TGI (RXF 393 renal): > 100 µM; TGI (SF-268 CNS): > 100 µM; TGI (SF-295 CNS): > 100 µM; TGI (SF-539 CNS): > 100 µM; TGI (SK-MEL-2 melanoma): > 100 µM; TGI (SK-MEL-28 melanoma): > 100 µM; TGI (SK-MEL-5 melanoma): > 100 µM; TGI (SK-OV-3 ovarian): > 100 µM; TGI (SN12C renal): > 100 µM; TGI (SNB-19 CNS): > 100 µM; TGI (SNB-75 CNS): > 100 µM; TGI (SR leukemia): > 100 µM; TGI (SW-620 colon): > 100 µM; TGI (T-47D breast): > 100 µM; TGI (TK-10 renal): > 100 µM; TGI (U251 CNS): > 100 µM; TGI (UACC-257 melanoma): > 100 µM; TGI (UACC-62 melanoma): > 100 µM; TGI (UO-31 renal): > 100 µM

Q: Which results are given for `COc1cccc2c1C(=O)c1c(O)c3c(c(O)c1C2=O)C[C@@](O)(C(C)=O)CC3OC1CC(OC2CC(N)C(O)C(C)O2)C(O)C(C)O1` (stereo partly drawn)?
A: TGI (786-0 renal): > 100 µM; TGI (A498 renal): > 100 µM; TGI (A549 NSCLC): > 100 µM; TGI (ACHN renal): > 100 µM; TGI (BT-549 breast): > 100 µM; TGI (CAKI-1 renal): > 100 µM; TGI (CCRF-CEM leukemia): 44 µM; TGI (COLO 205 colon): > 100 µM; TGI (DU-145 prostate): > 100 µM; TGI (EKVX NSCLC): > 100 µM; TGI (HCC-2998 colon): > 100 µM; TGI (HCT-116 colon): > 100 µM; TGI (HCT-15 colon): > 100 µM; TGI (HL-60(TB) leukemia): 34.8 µM; TGI (HOP-62 NSCLC): > 100 µM; TGI (HOP-92 NSCLC): > 100 µM; TGI (HS 578T breast): > 100 µM; TGI (HT29 colon): > 100 µM; TGI (IGROV1 ovarian): > 100 µM; TGI (K-562 leukemia): > 100 µM; TGI (KM12 colon): > 100 µM; TGI (LOX IMVI melanoma): > 100 µM; TGI (M14 melanoma): > 100 µM; TGI (MALME-3M melanoma): > 100 µM; TGI (MCF7 breast): > 59.6 µM; TGI (MDA-MB-231 breast): > 100 µM; TGI (MDA-MB-435): > 100 µM; TGI (MDA-N): > 100 µM; TGI (MOLT-4 leukemia): 7.24 µM; TGI (NCI-H226 lung): > 100 µM; TGI (NCI-H23 lung): > 100 µM; TGI (NCI-H460 lung): > 100 µM; TGI (NCI-H522 lung): > 100 µM; TGI (NCI/ADR-RES ovarian): > 100 µM; TGI (OVCAR-3 ovarian): > 100 µM; TGI (OVCAR-4 ovarian): > 100 µM; TGI (OVCAR-5 ovarian): > 100 µM; TGI (OVCAR-8 ovarian): > 100 µM; TGI (PC-3 prostate): > 100 µM; TGI (RPMI-8226 leukemia): > 74.5 µM; TGI (RXF 393 renal): > 100 µM; TGI (SF-268 CNS): > 100 µM; TGI (SF-295 CNS): > 100 µM; TGI (SF-539 CNS): > 76.8 µM; TGI (SK-MEL-2 melanoma): > 100 µM; TGI (SK-MEL-28 melanoma): > 100 µM; TGI (SK-MEL-5 melanoma): > 100 µM; TGI (SK-OV-3 ovarian): > 100 µM; TGI (SN12C renal): > 100 µM; TGI (SNB-19 CNS): > 85.1 µM; TGI (SNB-75 CNS): 85.7 µM; TGI (SR leukemia): > 70 µM; TGI (SW-620 colon): > 100 µM; TGI (T-47D breast): > 100 µM; TGI (TK-10 renal): > 100 µM; TGI (U251 CNS): > 87.6 µM; TGI (UACC-257 melanoma): > 100 µM; TGI (UACC-62 melanoma): > 100 µM; TGI (UO-31 renal): > 100 µM

Q: Which results are given for `C[C@]12CC[C@H]3[C@@H](CC=C4C[C@@H](N5CCCC5)CC[C@@]43C)[C@@H]1C[C@H](N1CCCCC1)[C@@H]2O`?
A: TGI (786-0 renal): > 100 µM; TGI (A498 renal): > 100 µM; TGI (A549 NSCLC): > 100 µM; TGI (ACHN renal): > 100 µM; TGI (BT-549 breast): > 100 µM; TGI (CAKI-1 renal): > 100 µM; TGI (CCRF-CEM leukemia): > 100 µM; TGI (COLO 205 colon): > 100 µM; TGI (DU-145 prostate): > 100 µM; TGI (EKVX NSCLC): > 100 µM; TGI (HCC-2998 colon): > 100 µM; TGI (HCT-116 colon): > 100 µM; TGI (HCT-15 colon): > 100 µM; TGI (HL-60(TB) leukemia): > 100 µM; TGI (HOP-62 NSCLC): > 100 µM; TGI (HOP-92 NSCLC): > 100 µM; TGI (HS 578T breast): > 100 µM; TGI (HT29 colon): > 100 µM; TGI (IGROV1 ovarian): > 100 µM; TGI (K-562 leukemia): 49.6 µM; TGI (KM12 colon): > 100 µM; TGI (LOX IMVI melanoma): > 100 µM; TGI (M14 melanoma): 40.4 µM; TGI (MALME-3M melanoma): > 100 µM; TGI (MCF7 breast): > 100 µM; TGI (MDA-MB-231 breast): > 100 µM; TGI (MDA-MB-435): > 100 µM; TGI (MDA-N): > 100 µM; TGI (MOLT-4 leukemia): > 100 µM; TGI (NCI-H226 lung): > 100 µM; TGI (NCI-H23 lung): > 100 µM; TGI (NCI-H460 lung): > 100 µM; TGI (NCI-H522 lung): > 100 µM; TGI (NCI/ADR-RES ovarian): > 100 µM; TGI (OVCAR-3 ovarian): > 100 µM; TGI (OVCAR-4 ovarian): > 100 µM; TGI (OVCAR-5 ovarian): > 100 µM; TGI (OVCAR-8 ovarian): > 100 µM; TGI (PC-3 prostate): > 100 µM; TGI (RPMI-8226 leukemia): 85.7 µM; TGI (RXF 393 renal): > 100 µM; TGI (SF-268 CNS): > 100 µM; TGI (SF-295 CNS): > 100 µM; TGI (SF-539 CNS): > 100 µM; TGI (SK-MEL-28 melanoma): > 100 µM; TGI (SK-MEL-5 melanoma): > 100 µM; TGI (SK-OV-3 ovarian): > 100 µM; TGI (SN12C renal): > 100 µM; TGI (SNB-19 CNS): > 100 µM; TGI (SNB-75 CNS): > 100 µM; TGI (SR leukemia): 35.7 µM; TGI (SW-620 colon): > 100 µM; TGI (T-47D breast): > 100 µM; TGI (TK-10 renal): > 100 µM; TGI (U251 CNS): > 100 µM; TGI (UACC-257 melanoma): 83.8 µM; TGI (UACC-62 melanoma): > 100 µM; TGI (UO-31 renal): > 100 µM
